Assay: gradient 5% acetonitrile 3 min, to 50% in 2 min, to 85% in 15 min, held 3 min, 100 µL/min
Conditions: column: Zorbax Extend-C18 2.1 x 50 mm; eluents: water / acetonitrile, 0.1% formic acid
Outline: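 In both positive and negative ionization mode, a quadrupole time-of-flight mass spectrometer coupled to HPLC analyzed pure standards run in mixtures of ~100 molecules. The Zorbax Extend-C18 column (2.1 × 50 mm, 1.8 μm) was operated at 100 μL/min with water and acetonitrile, each containing 0.1% formic acid. The dead volume was 40 μL and the dwell volume 900 μL. Retention time came from adduct peaks that were computationally picked and individually inspected by hand.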

Compound `Cc1cccc(CN2C(=O)CN(S(=O)(=O)c3ccccc3)CC2(C)C(=O)NCCC(C)C)c1` (configuration not stated) has an RP-LC retention time of 1030 s.

In the case of `O=C(NCCc1csc(-c2ccc(F)cc2)n1)Nc1ccccc1C(F)(F)F`, the RP-LC retention time is reported as 948 s.

Work on `CCN1C(=O)c2cc(S(=O)(=O)Nc3cc(C)ccc3F)ccc2Oc2cccnc21` yielded an RP-LC retention time of 1030 s.

With `COc1cc(-c2noc(Cn3ncn4nc(-c5cc(C)ccc5C)cc4c3=O)n2)cc(OC)c1OC` the RP-LC retention time was 1140 s.

Compound `O=C(Nc1ccc2c(c1)OCCO2)N1CCC(Oc2ccccc2)C1` (configuration not stated) has an RP-LC retention time of 639 s.

Work on `Cc1cc2nc(C(=O)Nc3cccc(F)c3)cc(C)n2n1` yielded an RP-LC retention time of 970 s.

For `Nc1nc(CN2CCN(c3ccccn3)CC2)nc(N2CCCCC2)n1`, the RP-LC retention time was 561 s.

`O=C1N(c2ccc(F)cc2)c2ncccc2S(=O)(=O)N1Cc1ccccc1F` gave an RP-LC retention time of 1040 s.

In the case of `CSc1ccc(CNC(=O)CSc2cc(N3CCCCC3)ncn2)cc1`, the RP-LC retention time is reported as 767 s.

`O=C(NCc1ccc(F)cc1F)C1CC(=O)N(c2ccc3c(c2)CCN3C(=O)C2CC2)C1` (configuration not stated) gave an RP-LC retention time of 750 s.

In the case of `CCCc1ccc(S(=O)(=O)N2C[C@@H](F)C[C@H]2C(=O)N2CCc3ccccc3C2)cc1`, the RP-LC retention time is reported as 1060 s.

Work on `Cc1cccc(CC(=O)N2C[C@@H]3C[C@H]2C[C@@H]3NC(=O)c2cccs2)c1` yielded an RP-LC retention time of 778 s.

For `CCn1c(=O)sc2cc(S(=O)(=O)N3CCC(C(=O)NCC4CCCO4)CC3)ccc21` (configuration not stated), the RP-LC retention time was 719 s.

In the case of `CCOCCCNC(=O)C1CCN(S(=O)(=O)c2ccc3c(c2)CCCC(=O)N3)CC1`, the RP-LC retention time is reported as 656 s.

In the case of `COc1ccc(N2C=C(C(=O)N3CCCC3)S(=O)(=O)c3ccc(F)cc32)cc1Cl`, the RP-LC retention time is reported as 838 s.

`O=C(NCCc1cccs1)C1CCCN(c2nccn3nc(-c4ccccc4Cl)cc23)C1` (configuration not stated) showed an RP-LC retention time of 947 s.

With `Cc1ccc(CN2CCN(C3CCN(C(=O)Nc4ccccc4)CC3)C2=O)cc1` the RP-LC retention time was 844 s.

With `Cc1ccc(CNC(=O)N2CCC3(CC2)NC(=O)c2ccc(Cl)cc2N3C)cc1` the RP-LC retention time was 843 s.

With `CCn1ccc(C(=O)Nc2nnc(CSc3ccccc3)o2)n1` the RP-LC retention time was 712 s.

For `Cn1cc(-c2cc3n(n2)CCC(=O)N3CC(=O)NCc2cccnc2)c2ccccc21`, the RP-LC retention time was 566 s.

`Cc1cc(NC(=O)c2sc(NCc3ccco3)nc2C)ccc1Cl` showed an RP-LC retention time of 956 s.

`Cc1ccc(-c2ccc3nn(Cc4nc(-c5cccc(C(F)(F)F)c5)no4)c(=O)n3n2)cc1` gave an RP-LC retention time of 1090 s.

`CCc1nnc([C@@H]2CC(F)(F)CN2C(=O)Cc2cc(C)no2)o1` gave an RP-LC retention time of 674 s.

With `CCCCS(=O)(=O)c1cc2c(cc1NC(=O)Cc1ccc(C)cc1)n(C)c(=O)n2C` the RP-LC retention time was 931 s.

For `CC(C)CCN1CCC(N(C(=O)NCCc2ccccc2)C2CCOCC2)CC1`, the RP-LC retention time was 700 s.

For `CCOc1ccc(-c2nc(CN3CCN(C(=O)NC(C)C)CC3)c(C)o2)cc1`, the RP-LC retention time was 656 s.

Compound `COc1ccc(Cc2nnc(C3CCN(C(=O)c4cccc(N(C)C)c4)CC3)s2)cc1` has an RP-LC retention time of 712 s.

Compound `CCc1ccccc1NC(=O)Cn1c(=O)n(-c2ccc(C)cc2)c(=O)c2c1cc(C)n2C` has an RP-LC retention time of 892 s.

In the case of `O=[N+]([O-])c1ccc2nc(N3CCNCC3)ccc2c1`, the RP-LC retention time is reported as 641 s.

Compound `COc1ccc(Cl)cc1S(=O)(=O)N1CCCC(C(=O)NCc2ccncc2)C1` (configuration not stated) has an RP-LC retention time of 622 s.

For `Cc1ccc(NC(=O)C2CCCN(S(=O)(=O)c3c[nH]c(C(=O)N4CCCCCC4)c3)C2)cc1F` (configuration not stated), the RP-LC retention time was 652 s.

With `O=C(Cn1cnc2nc(N3CCC(C(=O)NC4CC4)CC3)sc2c1=O)NCc1ccco1` the RP-LC retention time was 610 s.

`CC1CCN(C(=O)C2CCCN(c3ncnc4c3nc3n4CCCCC3)C2)CC1` (configuration not stated) showed an RP-LC retention time of 793 s.

For `O=C(c1cc(S(=O)(=O)N2CCCC(C(=O)N3CCOCC3)C2)c[nH]1)N1CCCC1` (configuration not stated), the RP-LC retention time was 638 s.

Work on `O=C(Nc1cnc(-c2ccc(F)cc2)nc1)c1ccccc1` yielded an RP-LC retention time of 961 s.

For `CCC(C)NC(=O)c1ccc2c(c1)CCN2C(C)=O` (configuration not stated), the RP-LC retention time was 668 s.

`O=C(Nc1ccc(Cl)cc1F)c1cnc(-c2ccc(F)cc2)nc1-c1ccncc1` showed an RP-LC retention time of 992 s.

Compound `CCc1nc2ccccc2c(=O)n1Cc1noc(COc2ccc(OC)cc2)n1` has an RP-LC retention time of 921 s.

Compound `COc1ccc(-c2nnc(N3CCC(C(=O)NCCN4CCOCC4)CC3)o2)cc1` has an RP-LC retention time of 889 s.

`Cc1cc2nn(CC(=O)Nc3ccc(F)cc3Cl)c(=O)n2c(-c2ccccc2)n1` gave an RP-LC retention time of 761 s.

Work on `CCOc1ccc(N2CC(c3nc(-c4ccc(OC)cc4)no3)CC2=O)cc1` (configuration not stated) yielded an RP-LC retention time of 972 s.

With `O=C(NCc1ccccc1Cl)C1CCN(S(=O)(=O)c2cc(C(=O)N3CCCC3)cs2)CC1` the RP-LC retention time was 815 s.

`CCc1nc(N2CCC(C(=O)NCc3cccc(C(F)(F)F)c3)CC2)c2c(C)scc2n1` showed an RP-LC retention time of 786 s.

`CC(=O)c1cccc(NC(=O)c2ccc(Cl)s2)c1` gave an RP-LC retention time of 832 s.

In the case of `CCOC(=O)C1=C(CN2CCC(c3ccc(C)cc3)C2)NC(=O)NC1c1cccc(OC)c1OC` (configuration not stated), the RP-LC retention time is reported as 713 s.

`CC1CCC(NC(=O)c2nnc(-c3ccc(S(=O)(=O)N4CCCCC4)cc3)o2)CC1` (configuration not stated) showed an RP-LC retention time of 1110 s.

`Cc1ccccc1NC(=O)CSc1nnc2c3cc(-c4ccc(F)cc4)nn3ccn12` gave an RP-LC retention time of 897 s.

Work on `COc1ccc2c(c1)C1(CCN(C(=O)NCCC(C)C)C1)C(=O)N2` (configuration not stated) yielded an RP-LC retention time of 716 s.

`NC(=O)C1CCN(C(=O)C2CCN(C(=O)C3CC(=O)N(c4ccc(F)cc4)C3)CC2)CC1` (configuration not stated) gave an RP-LC retention time of 599 s.

Work on `Cc1ccc(CNC(=O)C2CCN(C(=O)c3cc(-c4cccnc4)n[nH]3)CC2)o1` yielded an RP-LC retention time of 586 s.

`CSc1ccc(-c2nc3cnccn3c2Nc2ccccc2)cc1` gave an RP-LC retention time of 930 s.

`COC(=O)c1ccc2c(=O)n(Cc3ccc(F)cc3)c(N3CCOCC3)nc2c1` gave an RP-LC retention time of 975 s.

In the case of `CN(C)C1(CC2CC2)CCN(C(=O)c2ccsc2)CC1`, the RP-LC retention time is reported as 578 s.

In the case of `COc1ccc(CN2C=C(C(=O)OCc3ccccc3OC)C(C)=NS2(=O)=O)cc1`, the RP-LC retention time is reported as 1120 s.

Work on `COc1cccc(CC(=O)Nc2ccc(-c3nc(Cn4cccn4)c(C)o3)cc2)c1` yielded an RP-LC retention time of 848 s.

`O=C(NC1CCCCCC1)c1ccc2ccnc(N3CCN(c4ccccc4)CC3)c2c1` showed an RP-LC retention time of 922 s.

`COc1cccc2c1OC1(C)CC2C(S(=O)(=O)c2ccc(Cl)cc2)C(=O)N1` (configuration not stated) gave an RP-LC retention time of 877 s.

`C#CCOCC1CCN(C(=O)CSCc2ccccc2)CC1` gave an RP-LC retention time of 850 s.

`CCN1CCN(C(=O)CCc2cc(OC)c(OC)c(OC)c2)c2cccnc21` showed an RP-LC retention time of 613 s.

For `CCS(=O)(=O)N1CC(=O)N(c2cc(Cl)ccc2C)C(C)(C(=O)NC2CCCCC2)C1` (configuration not stated), the RP-LC retention time was 955 s.

`COc1ccc(NC(=O)C2CCN(S(=O)(=O)c3ccc4[nH]c(=O)sc4c3)CC2)cc1Cl` gave an RP-LC retention time of 821 s.

`OC1CCC12CCN(Cc1cn[nH]c1-c1ccccc1)CC2` (configuration not stated) gave an RP-LC retention time of 568 s.

`COc1ccc(C(=O)N2CCC(COc3ccc(C(=O)NC4CC4)cc3)CC2)c(C)c1` showed an RP-LC retention time of 808 s.

Compound `CCN1C(=O)c2cccnc2Sc2cc(CNC(=O)c3ccncc3)ccc21` has an RP-LC retention time of 623 s.

Work on `CC(C)c1cccc(NC(=O)Cn2cc(-c3nc(-c4cccs4)no3)ccc2=O)c1` yielded an RP-LC retention time of 962 s.

For `CCc1ccc(CNC(=O)C2CCN(c3cnc4nccnc4c3)CC2)cc1`, the RP-LC retention time was 747 s.

With `Cc1cc2n(n1)CCC(=O)N2CCCC(=O)NCc1cccs1` the RP-LC retention time was 637 s.

With `Cc1nc2cc(-c3noc(-c4ccc(C(F)(F)F)cc4)n3)ccc2n(C)c1=O` the RP-LC retention time was 1180 s.

With `COc1ccc(NC(=O)NCCc2nc3cccnc3n2C2CCCC2)c(OC)c1` the RP-LC retention time was 708 s.

`Cc1sc(-n2c(C)c3c(C)nnc(C)c3c2C)nc1-c1ccccc1` showed an RP-LC retention time of 687 s.

`Cc1ccc(CNC(=O)CN2CCN(C(=O)Nc3ccc(F)cc3)CC2=O)o1` gave an RP-LC retention time of 695 s.

For `CCNC(=O)C1CCN(S(=O)(=O)c2ccc(OCC)c(C)c2)CC1`, the RP-LC retention time was 796 s.

With `Cn1c(N)c(C(=O)c2ccco2)c(=O)n(C)c1=O` the RP-LC retention time was 560 s.

For `Cc1noc(C2CN(C(=O)Nc3ccc(F)cc3)CC23CCOCC3)n1` (configuration not stated), the RP-LC retention time was 723 s.

`CCn1c(=O)sc2cc(S(=O)(=O)N3CCC(C(=O)N4CCCCC4C)CC3)ccc21` (configuration not stated) showed an RP-LC retention time of 896 s.

In the case of `COC(=O)c1[nH]c(C)c(C(=O)C(C)N(C(=O)c2ccccc2)C2CCCCC2)c1C` (configuration not stated), the RP-LC retention time is reported as 941 s.

In the case of `COc1ccc(C2Cn3nnc(-c4nc(-c5cccc(Cl)c5)no4)c3CO2)cc1` (configuration not stated), the RP-LC retention time is reported as 1250 s.

With `Cc1cc(N2CCN(C(=O)Nc3ccc4c(c3)OCO4)CC2)nc(N2CCCC2)n1` the RP-LC retention time was 637 s.

`Cn1ncc(N2CCCC(C(=O)N3CCc4ccccc4C3)C2)cc1=O` (configuration not stated) showed an RP-LC retention time of 732 s.

In the case of `O=C(Cc1cccc(F)c1)N1CCc2nc(-c3ccc(Cl)cc3)ncc2C1`, the RP-LC retention time is reported as 1060 s.

Compound `O=C(Nc1ccc2c(c1)OCO2)C1CCN(C(=O)c2ccccc2F)CC1` has an RP-LC retention time of 741 s.

Compound `CC(=O)Cc1nsc(NC(=O)c2cc(-c3cccc(C(F)(F)F)c3)oc2C)n1` has an RP-LC retention time of 657 s.

Compound `O=C(Cn1ccn2nc(-c3ccccc3)c(CO)c2c1=O)Nc1ccc2c(c1)OCO2` has an RP-LC retention time of 1030 s.

For `Cc1cc(C)cc(N2CCC(NC(=O)CC(C)C)C2=O)c1` (configuration not stated), the RP-LC retention time was 814 s.

For `Cn1cnc(S(=O)(=O)N2CC(n3cc(C(=O)NCC4CC4)nn3)C2)c1`, the RP-LC retention time was 622 s.

Work on `O=C(c1csc(N2CCN(c3cccc(Cl)c3)CC2)n1)N1CCOCC1` yielded an RP-LC retention time of 970 s.

For `Cc1ccc(NC(=O)C2CCc3nc(N4CCOCC4)ncc3C2)cc1Cl` (configuration not stated), the RP-LC retention time was 880 s.

Reference: the METLIN SMRT retention time set (Domingo-Almenara et al. 2019)
